Experimental data published in PubChem BioAssay (NCI).
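Method: 48-hour compound exposure of cells in 96-well plates, five concentrations, linear interpolation of endpoints. GI50 is the concentration that inhibits growth by half. TGI: total growth inhibition.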

Tests used:
Assay in all cases: DTP human tumour cell line panel, 48 h
U251 CNS = system: U251 CNS
SR leukemia = system: SR leukemia
NCI-H23 lung = system: NCI-H23 lung
BT-549 breast = system: BT-549 breast
MOLT-4 leukemia = system: MOLT-4 leukemia
OVCAR-5 ovarian = system: OVCAR-5 ovarian
CAKI-1 renal = system: CAKI-1 renal
UACC-257 melanoma = system: UACC-257 melanoma
SK-MEL-28 melanoma = system: SK-MEL-28 melanoma
HCT-116 colon = system: HCT-116 colon
A498 renal = system: A498 renal
HOP-92 NSCLC = system: HOP-92 NSCLC
M14 melanoma = system: M14 melanoma
SF-295 CNS = system: SF-295 CNS
KM12 colon = system: KM12 colon
NCI-H460 lung = system: NCI-H460 lung
NCI-H226 lung = system: NCI-H226 lung
MDA-MB-231 breast = system: MDA-MB-231 breast
SK-OV-3 ovarian = system: SK-OV-3 ovarian
IGROV1 ovarian = system: IGROV1 ovarian
SF-268 CNS = system: SF-268 CNS
TK-10 renal = system: TK-10 renal
HT29 colon = system: HT29 colon
RXF 393 renal = system: RXF 393 renal
K-562 leukemia = system: K-562 leukemia
OVCAR-8 ovarian = system: OVCAR-8 ovarian
SNB-19 CNS = system: SNB-19 CNS
SN12C renal = system: SN12C renal
MDA-MB-435 = system: MDA-MB-435
OVCAR-4 ovarian = system: OVCAR-4 ovarian
COLO 205 colon = system: COLO 205 colon
786-0 renal = system: 786-0 renal
NCI-H522 lung = system: NCI-H522 lung
SW-620 colon = system: SW-620 colon
SF-539 CNS = system: SF-539 CNS
HS 578T breast = system: HS 578T breast
PC-3 prostate = system: PC-3 prostate
SK-MEL-5 melanoma = system: SK-MEL-5 melanoma
SNB-75 CNS = system: SNB-75 CNS
EKVX NSCLC = system: EKVX NSCLC
MALME-3M melanoma = system: MALME-3M melanoma
NCI/ADR-RES ovarian = system: NCI/ADR-RES ovarian
HL-60(TB) leukemia = system: HL-60(TB) leukemia
HOP-62 NSCLC = system: HOP-62 NSCLC
SK-MEL-2 melanoma = system: SK-MEL-2 melanoma
MCF7 breast = system: MCF7 breast
DU-145 prostate = system: DU-145 prostate
T-47D breast = system: T-47D breast
ACHN renal = system: ACHN renal
HCC-2998 colon = system: HCC-2998 colon
UACC-62 melanoma = system: UACC-62 melanoma
A549 NSCLC = system: A549 NSCLC
RPMI-8226 leukemia = system: RPMI-8226 leukemia
UO-31 renal = system: UO-31 renal
HCT-15 colon = system: HCT-15 colon
CCRF-CEM leukemia = system: CCRF-CEM leukemia

Compound: Nc1cc(F)ccc1NC(=O)c1ccc(NC(=O)C/C=C/c2cccnc2)cn1
- GI50 (U251 CNS): 1.51 µM
- TGI (U251 CNS): > 50 µM
- GI50 (SR leukemia): 0.876 µM
- TGI (SR leukemia): > 50 µM
- GI50 (NCI-H23 lung): 1.68 µM
- TGI (NCI-H23 lung): 37.9 µM
- GI50 (BT-549 breast): 1.3 µM
- TGI (BT-549 breast): 8.31 µM
- GI50 (MOLT-4 leukemia): 0.908 µM
- TGI (MOLT-4 leukemia): > 50 µM
- GI50 (OVCAR-5 ovarian): 0.781 µM
- TGI (OVCAR-5 ovarian): > 50 µM
- GI50 (CAKI-1 renal): 1.88 µM
- TGI (CAKI-1 renal): 13.8 µM
- GI50 (UACC-257 melanoma): 1.65 µM
- TGI (UACC-257 melanoma): > 50 µM
- GI50 (SK-MEL-28 melanoma): 1.35 µM
- TGI (SK-MEL-28 melanoma): 4.23 µM
- GI50 (HCT-116 colon): 0.186 µM
- TGI (HCT-116 colon): 3.42 µM
- GI50 (A498 renal): 0.937 µM
- TGI (A498 renal): 3.37 µM
- GI50 (HOP-92 NSCLC): 0.699 µM
- TGI (HOP-92 NSCLC): 10.9 µM
- GI50 (M14 melanoma): 0.563 µM
- TGI (M14 melanoma): > 50 µM
- GI50 (SF-295 CNS): 1.8 µM
- TGI (SF-295 CNS): 7.36 µM
- GI50 (KM12 colon): 2.8 µM
- TGI (KM12 colon): > 50 µM
- GI50 (NCI-H460 lung): 1.43 µM
- TGI (NCI-H460 lung): > 50 µM
- GI50 (NCI-H226 lung): 2.3 µM
- TGI (NCI-H226 lung): > 50 µM
- GI50 (MDA-MB-231 breast): 8.61 µM
- TGI (MDA-MB-231 breast): > 50 µM
- GI50 (SK-OV-3 ovarian): 2.58 µM
- TGI (SK-OV-3 ovarian): > 50 µM
- GI50 (IGROV1 ovarian): 0.804 µM
- TGI (IGROV1 ovarian): > 50 µM
- GI50 (SF-268 CNS): 2.24 µM
- TGI (SF-268 CNS): > 50 µM
- GI50 (TK-10 renal): 0.673 µM
- TGI (TK-10 renal): 8.16 µM
- GI50 (HT29 colon): 1.5 µM
- TGI (HT29 colon): > 50 µM
- GI50 (RXF 393 renal): 0.938 µM
- TGI (RXF 393 renal): 3.48 µM
- GI50 (K-562 leukemia): 0.302 µM
- TGI (K-562 leukemia): > 50 µM
- GI50 (OVCAR-8 ovarian): 0.147 µM
- TGI (OVCAR-8 ovarian): > 50 µM
- GI50 (SNB-19 CNS): 2.15 µM
- TGI (SNB-19 CNS): > 50 µM
- GI50 (SN12C renal): 0.364 µM
- TGI (SN12C renal): > 50 µM
- GI50 (MDA-MB-435): 1.25 µM
- TGI (MDA-MB-435): 7.18 µM
- GI50 (OVCAR-4 ovarian): 2.21 µM
- TGI (OVCAR-4 ovarian): > 50 µM
- GI50 (COLO 205 colon): 0.576 µM
- TGI (COLO 205 colon): 10.4 µM
- GI50 (786-0 renal): 2.2 µM
- TGI (786-0 renal): > 50 µM
- GI50 (NCI-H522 lung): 0.629 µM
- TGI (NCI-H522 lung): 30 µM
- GI50 (SW-620 colon): 0.208 µM
- TGI (SW-620 colon): 12.5 µM
- GI50 (SF-539 CNS): 0.177 µM
- TGI (SF-539 CNS): 4 µM
- GI50 (HS 578T breast): 1.3 µM
- TGI (HS 578T breast): > 50 µM
- GI50 (PC-3 prostate): 1.11 µM
- TGI (PC-3 prostate): > 50 µM
- GI50 (SK-MEL-5 melanoma): 0.96 µM
- TGI (SK-MEL-5 melanoma): 1.9 µM
- GI50 (SNB-75 CNS): 0.794 µM
- TGI (SNB-75 CNS): 47.3 µM
- GI50 (EKVX NSCLC): 2.49 µM
- TGI (EKVX NSCLC): > 50 µM
- GI50 (MALME-3M melanoma): 0.465 µM
- TGI (MALME-3M melanoma): 4.81 µM
- GI50 (NCI/ADR-RES ovarian): 1.31 µM
- TGI (NCI/ADR-RES ovarian): > 50 µM
- GI50 (HL-60(TB) leukemia): 0.525 µM
- TGI (HL-60(TB) leukemia): > 50 µM
- GI50 (HOP-62 NSCLC): 1.99 µM
- TGI (HOP-62 NSCLC): > 50 µM
- GI50 (SK-MEL-2 melanoma): 2.01 µM
- TGI (SK-MEL-2 melanoma): > 50 µM
- GI50 (MCF7 breast): 1.11 µM
- TGI (MCF7 breast): 10 µM
- GI50 (DU-145 prostate): 1.1 µM
- TGI (DU-145 prostate): 5.16 µM
- GI50 (T-47D breast): 0.75 µM
- TGI (T-47D breast): > 50 µM
- GI50 (ACHN renal): 2.21 µM
- TGI (ACHN renal): > 50 µM
- GI50 (HCC-2998 colon): 1.43 µM
- TGI (HCC-2998 colon): 6.98 µM
- GI50 (UACC-62 melanoma): 1.31 µM
- TGI (UACC-62 melanoma): 5.95 µM
- GI50 (A549 NSCLC): 3.02 µM
- TGI (A549 NSCLC): > 50 µM
- GI50 (RPMI-8226 leukemia): 0.24 µM
- TGI (RPMI-8226 leukemia): 2.05 µM
- GI50 (UO-31 renal): 1.63 µM
- TGI (UO-31 renal): > 50 µM
- GI50 (HCT-15 colon): 0.667 µM
- TGI (HCT-15 colon): > 50 µM
- GI50 (CCRF-CEM leukemia): 0.2 µM
- TGI (CCRF-CEM leukemia): > 50 µM
